Results published in a melting point compilation (Tetko et al.; mined from patent text by program, amines drawn as free bases though some values may be those of a salt).

Row | SMILES | melting point
1 | COc1ccc2c(c1)C(C)N(C)C(=O)C2c1cc(OC)c(OC)c(OC)c1 (stereo not given) | 135 to 140 °C
2 | NS(=O)(=O)NC(=O)CNC(=O)NCCCCC1CCSS1 (stereo not given) | 143 to 145 °C
3 | COc1cc2nc(C(N)=O)sc2cc1OC | 211 to 212 °C
4 | O=C1CCC(c2ccc3[nH]c(-c4ccnnc4)cc3c2)=NN1 | > 300 °C
5 | CC(=O)SCC(C)C(=O)N(C1Cc2ccccc2C1)[C@@H](C)C(=O)O (stereo not given in full) | 140 to 142 °C
6 | CC1=CC(O)C(OC(=O)C=Cc2ccc(N)cc2)C(C)(C)CC1=O (stereo not given) | 49 to 50 °C
7 | Cc1cc2ncnn2nc1OCC(CS(N)(=O)=O)C(C)C (stereo not given) | 196 to 197 °C
8 | CCOc1cc2ncnc(N3CCN(C(=O)Nc4ccc([N+](=O)[O-])cc4)CC3)c2cc1OCC | 120 to 121 °C
9 | Cc1cccc(N(c2ccccc2)c2ccc(-c3ccc(-c4ccc(N(c5ccccc5)c5cccc(C)c5)cc4)cc3)cc2)c1 | 189 to 190 °C
10 | Cc1cccc(C)c1Nc1nc(N)ns1 | 180 °C
11 | CCCCCCCCCCCCCCCCCc1nnc(CO)n1-c1sc(CC)cc1C(=O)c1ccc(C)cc1 | 68 to 69 °C
12 | CCN(CC)CCNc1ccc(-c2ccnc(Nc3cc(OC)c(OC)c(OC)c3)n2)cn1 | 67 °C
13 | COC(=O)c1ccc(CC(C)NCC(O)c2ccccc2Cl)cc1 (stereo not given) | 109 to 110 °C
14 | CCCc1c(O)ccc2c(C)c(CC(=O)OC)c(=O)oc12 | 160 to 162 °C
15 | Cc1cccc(-c2nccc(O)n2)c1 | 148 to 150 °C
16 | N#Cc1c(-c2cccc(F)c2)c(Cl)n2c1CNCC2 | 104 to 106 °C
17 | O=C(NC1CCC1)c1cc(Nc2nc(Cl)nc3ccoc23)[nH]n1 | 277 °C
18 | Cc1c(-c2cc(F)cc(C(F)(F)F)c2)ccc(N)c1C#N | 96 to 97 °C
19 | O=C(O)C(F)Oc1ccc(Cl)cc1Cl (stereo not given) | 89 to 91 °C
20 | CCOC(=O)C=C1CN=C(c2ccccc2Cl)c2cc(Cl)ccc2N1 | 103 to 105 °C
21 | CC(CC(C)C)=Nc1cc2c(cc1F)OCC(=O)N2 | 113 to 115 °C
22 | CNc1nc(C)c(-c2ccncc2)s1 | 155 to 156 °C
23 | CC1(C)NC(=O)N(c2ccc([N+](=O)[O-])c(C(F)(F)F)c2)C1=N | 168 °C
24 | COc1ccc2c(c1)Sc1ccc(F)cc1C(O)C2 (stereo not given) | 74 to 76 °C
25 | O=C1C(=Cn2ccnc2)CSc2ccc(Cl)cc21 | 139 to 141 °C
26 | NS(=O)(=O)c1cscc1C(=O)Cl | 236 to 238 °C

Row | SMILES | melting point
27 | CCN1C(=O)C(=O)N(c2ccc(F)cc2)C1=S | 172 to 174 °C
28 | CC(C)=NOCc1nc2c(N)nc3cc(Br)cnc3c2n1CC(C)C | 176 to 178 °C
29 | CCc1ccc2c(c1)C(c1ccccc1F)=NCC1CN=C(C)N21 (stereo not given) | 152 to 154 °C
30 | CCCCc1nc(C(C)(C)O)c(C#N)n1C(c1ccccc1)(c1ccccc1)c1ccccc1 | 151 to 152 °C
31 | c1cnc2ncncc2c1 | 249 to 252 °C
32 | CC1=C(C#N)C(c2cccc([N+](=O)[O-])c2)C2=C(CCCC2=O)N1 (stereo not given) | 214 to 216 °C
33 | CCn1c(=O)oc2cc([N+](=O)[O-])cc(F)c21 | 121 to 122 °C
34 | COc1cccc(OC)c1C(=O)Nc1cc(C(C)(C)C)ns1 | 266 to 267 °C
35 | CCCc1nc2c(N)nc3cc(OCCCCCCNS(C)(=O)=O)ccc3c2n1CCCCNS(C)(=O)=O | 138 to 140 °C
36 | COC(=O)c1cccc(C(=O)c2cn(CC(=O)N(C)CCc3ccccc3)c3ccc(OCc4ccccc4)cc23)c1 | 224 to 230 °C
37 | NS(=O)(=O)CS(=O)(=O)c1ccc(S(=O)(=O)CCCO)cc1 | 200 °C
38 | O=C(Nc1ccccc1)OC(c1cccnc1)C(Cl)(Cl)Cl (stereo not given) | 146 °C
39 | Cc1c(-c2cccnn2)ssc1=S | 193 °C
40 | CCOC(=O)N1CCC(NC(=S)Nc2cncnc2NCc2ccco2)CC1 | 193 °C
41 | COc1cccc(-c2ccc3c(c2)C(C)(C)OC(=O)N3)c1 | 164 to 165 °C
42 | CCn1cc(C(=O)O)c(=O)c2ccc(N)cc21 | 304 to 307 °C
43 | N#Cc1nn(-c2c(Cl)cc(C(F)(F)F)cc2Cl)c(CO)c1SC(F)(F)F | 118 °C
44 | Cc1nc(N2CCN(Cc3ccc(F)cc3)C2=O)sc1C(=O)NCc1ncco1 | 187 to 189 °C
45 | Cc1c(C=O)c2cnnc(NCc3ccccc3)c2n1Cc1ccccc1 | 171 to 172 °C
46 | Clc1ccc(C2NN=C(c3cccnc3)S2)cc1 (stereo not given) | 108 to 110 °C
47 | CN1Cc2c(C#C[Si](C)(C)C)ncn2-c2cccc(Cl)c2C1=O | 186 to 187 °C
48 | CC(C)OC(=O)c1cc(N2C(=O)C(C)C(C)N(C)C2=O)c(F)cc1Cl (stereo not given) | 119 to 120 °C
49 | Cc1cnc(C(=O)NC(C)C)c(C(=O)O)c1 | 95 to 105 °C
50 | O=C(Cl)Sc1nnnn1-c1ccccc1 | 112 to 114 °C
51 | Cc1nc2c(N)nc3ccccc3c2n1CC1(O)CCC1 | > 250 °C
52 | O=S(CCO)Cc1cccnc1 (stereo not given) | 84 to 86 °C

More lines, now with the values ahead:

Row | melting point | SMILES
53 | 152 to 154 °C | COc1ccc(CN2C(=O)[C@@H](NC(=O)Cc3ccccc3)[C@H]2CO)c(OC)c1 (relative stereo)
54 | 244 to 246 °C | COc1cc2ncnc(N3CCN(C(=O)Nc4ccc(N=Nc5ccccc5)cc4)CC3)c2cc1OC
55 | 188 to 190 °C | Cc1c(NC(=O)CC(C)(C)C)c(C)c2c(c1-c1ccc[nH]1)OCC2c1ccc(C(C)C)cc1 (stereo not given)
56 | 277 to 279 °C | Cc1ccc(NC(=O)CN2C(=O)C3(COc4cc5c(cc43)CCO5)c3ccccc32)c(C)c1 (stereo not given)
57 | 125 to 130 °C | O=[N+]([O-])c1cc([N+](=O)[O-])c(Nc2nc(-c3ccc(Cl)cc3Cl)cs2)c(C(F)(F)F)c1
58 | 193 to 197 °C | O=C(NC1CCN(CCC(O)c2ccc3c(c2)OCCO3)CC1)c1ccccc1 (stereo not given)
59 | 83 to 86 °C | NS(=O)(=O)c1cc(C(=O)O)cc(SCc2ccccn2)c1-c1ccccc1
60 | 103 to 107 °C | Clc1ccccc1-c1cc(-c2ccccc2)c(-c2ccccc2)s1
61 | 213 to 214 °C | CSN=C1C(=O)N2C(C(=O)OC(c3ccccc3)c3ccccc3)=C(CSc3nnnn3C)CSC12 (stereo not given)
62 | 98 °C | Cc1cc(-n2ccnc2)c2cccc(OCc3c(Cl)ccc(S(=O)(=O)N4CCC[C@H]4C(=O)N(C)CCN(C)CCCO)c3Cl)c2n1
63 | 43 to 46 °C | Cc1ccccc1-c1ccc2c(c1)CN(CCNC(=O)C1CCCC1)C(N)=N2
64 | 148 to 150 °C | CCOC(=O)C1=C(C)Nc2ccccc2NC1c1cccc([N+](=O)[O-])c1 (stereo not given)
65 | 159 to 160 °C | O=c1[nH]c(=O)n(Cc2cccc(OCc3noc(-c4ccc(Cl)cc4)n3)c2)o1
66 | 78 to 82 °C | Fc1ccc2c(C3CCN(CC4=Cc5ccccc54)CC3)noc2c1
67 | 103 °C | COc1ccc(-c2ccc(C3C(CCC(O)c4ccc(F)cc4)C(=O)N3c3ccc(F)cc3)cc2)cc1 (stereo not given)
68 | 156 to 157 °C | COc1cc(OCCCN(C)Cc2ccc(OC)c(OC)c2)ccc1NC(=O)c1cccc2c(=O)c3cccc(C)c3[nH]c12
69 | 140 to 141 °C | NS(=O)(=O)c1ccc(-n2nc(C(F)(F)F)cc2-c2ccc(Cl)cc2)cc1F
70 | 109 °C | O[C@H]1C[C@@H](c2ccccc2)c2ccc(Cl)cc21
71 | 76 to 77.5 °C | Cc1ccc(C(=O)OCCOc2ccc(OC(F)(F)F)cc2)cc1
72 | 184 to 186 °C | COc1ccc(S(=O)(=O)N(Cc2ccccc2)c2c(C(=O)NO)cnc3c2c(C)nn3C)cc1
73 | 134 to 136 °C | OCC1c2cc(Cl)ccc2Oc2ccc(Cl)cc21
74 | 100 to 105 °C | COC(=O)C1=C(C)NC(C)=C(C(=O)OCCN(O)CCC(c2ccccc2)c2ccccc2)C1c1cccc([N+](=O)[O-])c1 (stereo not given)

Row | melting point | SMILES
75 | 179 to 181 °C | OC[C@H](O)COc1nc(Oc2ccc(F)cc2F)nc2[nH]nc(-c3ccccc3Cl)c12
76 | 220 to 221 °C | O=C(Nc1nc2n(n1)Cc1ccccc1-2)c1ccccc1
77 | 185 to 188 °C | COc1cc(C(=O)N(C(C)C)C2CCCCC2)ccc1Cn1cccc2nc(-c3cccnc3)nc1-2
78 | 72 to 73 °C | CCCOc1cc(C=CC(=O)N2CCN(c3ccc(NC(=N)c4cccs4)cc3)CC2)cc(OCCC)c1O
79 | 186 °C | COc1cccc(OC)c1-c1ccc(C[C@H](NC(=O)c2c(Cl)cc(-c3cscn3)cc2Cl)C(=O)O)cc1
80 | 114 to 116 °C | CCCN(CCC)S(=O)(=O)c1cc(-c2csc(=Nc3ccccc3C)n2C)ccc1Cl
81 | 193 to 195 °C | O=[N+]([O-])c1ccc(-c2cc3c(Oc4ccc(Cl)cc4)cncc3s2)cc1
82 | 168 to 170 °C | Cc1ccc(C(=O)CC(C)C(=O)O)cc1 (stereo not given)
83 | 147 to 148 °C | CCC1(C)OC(c2ccc(S(C)(=O)=O)cc2)=C(c2ccc(C(C)=O)cc2)C1=O (stereo not given)
84 | 224 to 225 °C | O=C(CCl)Nc1ccc2c(c1NC(=O)c1ccc(Cl)cc1)C(=O)c1ccccc1C2=O
85 | 172 to 174 °C | CS(=O)c1cc(-c2nc(=O)c3ccccc3s2)ccn1 (stereo not given)
86 | 236 to 239 °C | Cn1c(CNC(=O)Nc2cccc(C(=O)O)c2)c(-c2ccccc2)c2cc(Cl)ccc2c1=O
87 | 135 to 136 °C | Cc1oc(-c2ccco2)nc1COc1ccc(COc2ncccc2C#N)cc1
88 | 225 °C | COc1cc2c(cc1-c1ccc(F)cc1C)NC(=O)CC(c1cccc(-n3ccnc3)c1)=N2
89 | 230 to 232 °C | C=C(F)C(F)(F)n1ncc(-c2ccc(S(N)(=O)=O)cc2)c(-c2ccc(F)cc2)c1=O
90 | 130 °C | O=S(=O)(N[C@H]1CC[C@H](CCN2CCC(c3cccc4c3CCO4)CC2)CC1)c1ccccc1
91 | 242 to 245 °C | COc1ccccc1NC(=O)Nc1cccc(-n2c(=O)c(CCC(=O)N(C)C)nc3cccnc32)c1
92 | 222 to 227 °C | CCc1cc(-c2c3ccccc3cc3oc(C)c(C)c23)cc(CC)c1OS(=O)(=O)c1ccc(C(=O)O)c(O)c1
93 | 273 to 276 °C | O=C(O)C1=Cc2cc(-c3ccc(C(F)(F)F)cc3)ccc2OCC1
94 | 269 to 270 °C | CCOC(=O)c1sc(Oc2ccc(OCc3ccc4ccccc4n3)cc2)c2c1CCc1cnn(C)c1-2
95 | 193 to 194 °C | COc1ccc2c(c1)CCN(C(=O)OCc1ccccc1)C21CCC(C(=O)O)(C(=O)O)CC1
